Inconclusive results are not listed. The source made the active and inactive calls.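 Rule for the calls: active = fitted IC50 within a set limit above the top dose, meaning light loss from cell killing; inconclusive = flat curve with 30 to 70% effect, or poor fit; inactive = IC50 beyond that set limit.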
System: NIH3T3 viability, ATP luminescence (CellTiter-Glo), 90 h
Test: NIH3T3 cell viability loss – ATP luminescence, mouse fibroblasts, counter-screen, dose response (AID 2010)

## CC(C)N1C(=O)/C(=C\c2nc3ccccc3c(=O)n2-c2ccccc2)c2ccccc21
  IC50: > 6 µM (inactive)

## O=[N+]([O-])C(/C=C(\Cl)[N+](=O)[O-])=C(N1CCCCC1)N1CCCCC1
  IC50: > 6 µM (inactive)

## Cc1ccccc1OCc1n(CC(=O)OC2CC(C)CCC2C(C)C)c2ccccc2[n+]1C (stereo not given)
  IC50: > 6 µM (inactive)

## O=[N+]([O-])C(/C=C(/Cl)[N+](=O)[O-])=C(N1CCCCC1)N1CCCCC1
  IC50: > 6 µM (inactive)

## C#CCOCCOCCOCCNc1nc(N2CCN(C(=O)CCCCCCCCCCNC(=O)Cn3cc(C[C@@H](C)O)nn3)CC2)nc(N2CCN(C(=O)CCCCCCCCCCNC(=O)[C@H](CCCN=C(N)N)n3cc(C[C@@H](C)CC)nn3)CC2)n1
  IC50: > 6 µM (inactive)
